Results published in patent US8754206B2, “Metal (III) complex of biuret-amide based macrocyclic ligand as green oxidation catalyst” (Council of Scientific & Industrial Research, priority 2011, dated 2014).

Key:
[1] = Catalyzed bleaching of Orange II by H2O2; settings: for k−1: from kinetic fitting; for k1 / k2: 0.01M Phosphate Buffer
Text: In another embodiment, to study the efficacy of complex (IA) as H2O2 activating catalyst, its activity towards bleaching of the dye Orange II ([4-[(2-hydroxynaphthyl)azo]-benzene sulphonic acid], Na+ salt) is studied. […] The exponential kinetic curve, that holds for at least 6 half-lives (FIG. 8), indicates the fact that (IA) is oxidatively robust. Therefore, little or no degradation of the catalysts takes places during the course of the oxidation. This is because C—H bond of the —NMe group is situated very far away from the proposed Fe-oxo intermediate, thereby reducing the chances of ligand degradation by intramolecular C—H abstraction as has been proposed before for other Fe-TAML, complexes.
Using same Perkin-Elmer spectrophotometer Orange II bleaching kinetics were carried out in 0.01 M phosphate buffer at 485 nm, one of the absorption peaks of Orange II. pH was varied from 7 to 11. Strength of stock solutions of IB and Orange II were (2×10^−5 M) and (2−20×10^−4 M) respectively. Stock solution of hydrogen peroxide of 2×10^−2 M was made by measuring the optical density at 230 nm (ε=72.8 M^−1 cm^−1). Appropriate amount of stock solutions of Orange II, Fe^III-catalyst (IB) and H2O2 were added consecutively in the 1.00 cm quartz cell during experiments. Extinction coefficients for Orange II of 17,800, 23,000 and 19,400 M^−1 cm^−1 at pH 7, 9 and 11 respectively was used to calculate the initial rates of Orange II oxidation, Plot of concentration versus time was taken up to 10-20% of conversion of the dye compared to the total reaction.
b. Kinetics of IA and IB Catalyzed Bleaching of Orange II by H2O2 • Orange II dye has absorption maxima at 485 nm. Natural oxidant H2O2 slowly oxidizes Orange II but in presence of IA and IB huge catalysis was observed. The kinetic data followed the mechanism shown in Scheme 2. The initial rate of the dye bleaching reaction obeyed Michaelis-Menten type Equation (2) which was derived considering the steady state of oxidized [Fe^III(L2X)] species using mass balance equation [Fe^III]T=[Fe^III(L2X)]]+[Oxidized-[Fe^III L2X)]]. From kinetic fitting it was observed k.1˜0 for both IA and IB. […] In Table 3 all the kinetic parameters related to Orange II bleaching are given in details at 25° C. in 0.01 M Phosphate Buffer.

[2] = Stability towards demetallation at different pH and phosphate buffer ionic strengths (UV-VIS); assay type: physicochemical; settings: for demetalation in high concentration phosphate buffer: twenty four hour time scale, 350 nm
Method: In yet another embodiment, the stability of (IA) towards demetallation at different pH and ionic strengths is tested to evaluate the operational stability of the complex of instant invention for possible catalytic reactions in water. […] The stability of this complex is also monitored at different ionic strengths at pH 7. […] The phosphate buffer induced demetallation for similar Fe-TAML's have been studied in details. The proposed mechanism for phosphate buffer induced demetallation involves first the co-ordination of the O—PO(OH)2 into the Fe(III) center followed by the intramolecular attack of the H+ onto the amide N-donors. Complex (IA) has an extra —NMe group which is not bonded to the Fe(III) center. The lone pair on this N-atom resides predominantly in the p-orbital and can possibly be the first site for attack of the intramolecular H+ ion, thereby shielding complex (IA) from phosphate induced demetallation.
(§1) a. Kinetic Studies of Add Catalyzed Demetalation. • [Fe^III(biuret-amide)] catalyst are subject to H^+ catalyzed demetalation, following the Equation 1 according to Scheme 2 described above, kd=k1*[H^+]+k2*[H^+]^2+k3*[H^+]^3 where kd is the first order rate constant.

[3] = Acid (HClO4) catalyzed demetalation kinetics; assay type: physicochemical; settings: for k1* (acid catalyzed demetalation): HClO4, 25.0 °C, 350 nm; for half-life at 0.173 mM: aqueous HClO4 solution, pH 1, read-out: t1/2 [pH 1] (converted)
Method: Acid induced demetalation kinetics was monitored in kinetic mode of the spectrophotometer (Perkin-Elmer—λ35) using 1.00 cm quartz cell in thermostatted cell housing. In the all kinetic runs IB was kept constant at 0.173 mM while acid concentration was varied from 0.04 to 3.0 M using HClO4. The pseudo first order rate constants (kd) were calculated from the initial rates at 350 nm (one of the absorption peaks of complex IB) and temperature was kept constant at 25.0±0.5° C. For each set, solution pH was measured with a pH meter (LABINDIA, PICO^+) with calibrated electrode.
as §1

[4] = Catalyzed bleaching of Safranine O by H2O2 and intramolecular inactivation; settings: pH 11.0, 25° C.
Text: Safranine O oxidation kinetics was monitored at 525 nm and pH 11 in 0.01 M Phosphate Buffer. The strengths of stock solutions of Safranine O, [Fe^III(biuret-amide)](X═H, NO2) IA, IB complexes and hydrogen peroxide were respectively 2×10^−3 M, 5×10^−5 M and 0.2 M respectively. The extinction coefficient of 3.3×10^4 […] at 525 nm was used to get initial rate in terms of concentration unit (Ms^−1). To get the intramolecular inactivation rate (ki) absorbance change with time was monitored up to complete inactivation of the catalyst. Calculations of rate constants were performed by using Equation (4) and (5).
c. […] For safranine O bleaching, Equation (2) can be simplified to Equation (3) and k2 value can be calculated from the initial rate vs, [Safranine O] data as given in Table 4.
d. Intramolecular Inactivation (ki) Measurement for Safranine O Bleaching at pH 11.0 • The mono exponential intramolecular inactivation rate constant (ki) measurement of the oxidized form of the catalyst was done by the method followed by Collins group. The simplified differential rate law for dye bleaching is given by Equation (3) where Dt and x are total concentrations of the dye and concentration of the bleached dye at time t respectively. Integrating the Equation (3) under the boundary condition x=x∞ at t=t∞ results Equation (4). Equation (5) was derived by replacing the concentration terms by the absorbance term.
From the slope of the double logarithm of the ratio At/A∞ vs. time plot in Equation 6 gives the value of ki (FIG. 13, Table 4). The rate constant k2 is calculated from the intercept of the plot by putting the value of ki.

[5] = Cyclic voltammetry in acetonitrile; assay type: physicochemical
Text: The σ-donor ability of (Et4N)2.[Fe^III(biuret-amide)] is studied using cyclic voltammetry. […] The peak observed for (IA) (E1/2 at −0.064 V) can most likely be assigned to a one electron oxidation for a Fe(III)/Fe(IV) couple while the other peak might be due to a ligand centered oxidation process (FIG. 6). On comparison with Fe-TAML complex (II) where a —CMe2 group is present instead of a —NMe group in the six membered ring of the complex, the Fe(III)/Fe(IV) couple for (IA) is found to be approximately 230 mV lower.
Infrared spectra were obtained on a Perkin-Elmer FT-IR spectrum GX instrument. LC-MS from Acquity Waters was used for ESI-MS analysis. EPR spectrum was recorded on a Bruker EMX X-band spectrometer operating at a field modulation of 100 kHz, modulation amplitude of 2. G and microwave radiation power of 2 mW. The solid Fe(III) complex was taken in a quartz tube and the spectrum was recorded at 298K. Cyclic voltammetry (CV) was done on an Autolab PGSTAT30 (Eco-Chemie) instrument in a conventional three-electrode test cell with platinum as the working electrode (WE), platinum wire as quasi reference electrode (RE) and a platinum foil as a counter electrode (CE). The measurements were carried out using a solution of 1 mM of (I) in dry acetonitrile with 0.1 M [n-Bu4N]PF6 as the supporting electrolyte. All reversible couples were confirmed by a linear dependence of peak current vs. the square root of the scan rate over the range of 20-200 mVs^−1.

Row | SMILES | k−1 [1] | k1 ([1]; pH 7.0, 25° C.) | k2 ([1]; pH 7.0, 25° C.) | k1 ([1]; pH 9.4, 25° C.) | k2 ([1]; pH 9.4, 25° C.) | k1 ([1]; pH 11.0, 25° C.) | k2 ([1]; pH 11.0, 25° C.) | demetalation in high concentration phosphate buffer [2] | acid induced demetalation compared to compound II [3] | k1* (acid catalyzed demetalation) [3] | half-life at 0.173 mM [3] | ki × 10^4 (intramolecular inactivation) [4] | k2 × 10^−3, from Equation (5) [4] | k2 × 10^−3, from initial rates [4] | also measured
1 | CN1C(=O)[N]2C(C)(C)C(=O)[N]3c4ccccc4[N]4C(=O)C(C)(C)[N](C1=O)[Fe]342[Cl] [Catalyst 1A, Tetraethyl ammonium 3,3,6,9,9-pentamethyl-1,4,8,11-tetrahydro-1H-benzo[i][1,4,6,8,11]pentaazacyclotridecine-2,5,7,10(6H,11H)-tetraone ferrate] | ~0 | (2.0 ± 0.1) × 10^2 M^−1s^−1 | (2.0 ± 0.1) × 10^4 M^−1s^−1 | (2.8 ± 0.2) × 10^3 M^−1s^−1 | (1.12 ± 0.10) × 10^5 M^−1s^−1 | (3.4 ± 0.2) × 10^4 M^−1s^−1 | (1.60 ± 0.10) × 10^5 M^−1s^−1 | insignificant absorption change | significantly less | (3.7 ± 0.5) × 10^−3 M^−1s^−1 | 0.4 h | 3.7 ± 0.1 s^−1 | 2.0 ± 0.1 M^−1s^−1 | 2.4 ± 0.1 M^−1s^−1 | catalytic activity compared with Fe-TAML ([1]; pH 7 and 9): much faster in oxidizing Orange II; bleaching of the dye Orange II by activation of H2O2 ([1]; pH 11): complete bleaching; pseudo first order rate constant kobs ([1]; pH 11): 0.021 ± 0.001 s⁻¹; stability at low pH ([2]; in presence of HClO4): very good stability up to pH 2; half-life ([2]; pH 5, 0.1M phosphate buffer, 25° C.): ~18 h; complex degraded ([2]; pH 5, 0.1M phosphate buffer, 5 hours, 25° C.): 10%; stability at different ionic strengths ([2]; pH 7, phosphate concentration): remarkably stable up to 0.5 M phosphate concentrations; Fe(III)/Fe(IV) couple lower than Fe-TAML complex (II) [5]: approximately 230 mV; formal reduction potential E1/2, reversible process (Fe(III)/Fe(IV) couple) ([5]; acetonitrile, 0.1 M [n-Bu4N]PF6, vs Fc+/Fc): −0.064 V; E1/2, quasi-reversible process ([5]; acetonitrile, 0.1 M [n-Bu4N]PF6, vs Fe+/Fc): −0.559 V
2 | CN1C(=O)[N]2C(C)(C)C(=O)[N]3c4ccc([N+](=O)[O-])cc4[N]4C(=O)C(C)(C)[N](C1=O)[Fe]342[Cl] [Catalyst 1B, Tetraethyl ammonium 3,3,6,9,9-pentamethyl-13-nitro-1,4,8,11-tetrahydro-1H benzo[i][1,4,6,8,11]pentaazacyclotridecine-2,5,7,10(6H,11H)-tetraone ferrate] | ~0 | (1.24 ± 0.10) × 10^3 M^−1s^−1 | (4.1 ± 0.5) × 10^5 M^−1s^−1 | (2.36 ± 0.6) × 10^3 M^−1s^−1 | (4.2 ± 0.4) × 10^5 M^−1s^−1 | (2.4 ± 0.2) × 10^4 M^−1s^−1 | (4.9 ± 0.5) × 10^5 M^−1s^−1 | insignificant absorption change | significantly less | (1.41 ± 0.09) × 10^−3 M^−1s^−1 | 1.33 h | 3.0 ± 0.2 s^−1 | 3.8 ± 0.3 M^−1s^−1 | 3.9 ± 0.1 M^−1s^−1 | –
